Source: patent publication US10766928B2, “Targeted conformationally-constrained kinked endosomal disrupting peptides” (priority 2012, dated 2020)
In brackets after ≈: the same amount, converted by molar mass. Where two headings read alike, the source gives them in different places. Non-standard residues stand in square brackets, D forms with d. Residues, ends and D or L forms follow the SMILES beside them. *: point of attachment. Pentanoyl(5-NH-cholesteryl) = CC(C)CCC[C@@H](C)[C@H]1CC[C@H]2[C@@H]3CC=C4C[C@@H](NCCCCC(=O)*)CC[C@]4(C)[C@H]3CC[C@]12C; Cholesteryloxycarbonyl = CC(C)CCC[C@@H](C)[C@H]1CC[C@H]2[C@@H]3CC=C4C[C@@H](OC(=O)*)CC[C@]4(C)[C@H]3CC[C@]12C; PEG3 = NCCOCCOCCOCCC(=O)O; Pra = C#CC[C@H](N)C(=O)O; Aib = CC(C)(N)C(=O)O; Ahx = NCCCCCC(=O)O; βAla = NCCC(=O)O

How the values were obtained:
[1] = system: endosomes of Jurkat lymphocytes; test: Endosome disruption in Jurkat lymphocytes: release of carboxyfluorescein from disulfide probe Compound 2, flow cytometry; conditions: for Efficacy (% of 1): % of the effect of compound 1, calculated span of dose-response curve, ± standard deviation; for Efficacy (% of 1) / Efficacy (% of max. 1): Jurkat; for Efficacy (% of max. 1): % change in cellular fluorescence relative to maximal response of Compound 1 (100%)
Method in brief: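 Human Jurkat cells treated with compounds plus disulfide probe Compound 2 (2.5 μM) for 14 h at 37 °C. Cytoplasmic release of pH-sensitive fluorophore Compound 3 quantified by flow cytometry. IC50 by non-linear regression; efficacy as % fluorescence change relative to Compound 1 maximum (100%).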

[2] = Thermodynamic solubility in PBS (pH 7.4); assay type: physicochemical
Excerpt: Values in parentheses represent 95% confidence intervals. N.D., not determined.
Measurements represent duplicate or more replicates, with active peptides subjected to multiple replicates. ND: not determined. The peptide was non-toxic and soluble in cell culture medium at this concentration.

[3] = read-out: Toxicity, Table 3, IC50, Jurkat, 48 h at 37° C., footnote a: non-toxic and soluble in cell culture medium at this concentration
[4] = read-out: Potency, Table 2, EC50 ± standard deviation, Jurkat lymphocytes, disulfide-linked fluorescent probe (2.5 μM), 14 h
[5] = phosphate buffered saline, pH 7.4, Table 3, PBS pH 7.4, 24 h at 22° C., read-out: Solubility
[6] = phosphate buffered saline, pH 7.4, Table 1, PBS pH 7.4, 24 hours at 22° C., ±S.D., read-out: Solubility (aq.)
[7] = read-out: Potency (EC50), Table 1, Jurkat lymphocytes, probe Compound 2 (2.5 μM), 14 hours, 95% confidence interval in neighbouring cell

SMILES | IC50 (Jurkat lymphocytes; [3]) [nM] | Efficacy (% of 1) ([1]; Table 2, 14 h) [%] | EC50 [1, 4] [nM] | solubility thermodynamic at 24 h [2, 5] [µM] | IC50 (Jurkat lymphocytes; 48 h) [nM] | EC50 ([1]; 14 h) [nM] | solubility thermodynamic at 24 h [2, 6] [µM] | other results
CC(=O)NC(C)(C)C(=O)NC(C)(C)C(=O)NC(C)(C)C(=O)NC(C)(C)C(=O)N[C@@H](Cc1c[nH]c2ccccc12)C(=O)N[C@@H](Cc1ccc(O)cc1)C(=O)N[C@@H](C)C(=O)N[C@@H](Cc1c[nH]c2ccccc12)C(=O)N[C@@H](Cc1ccc(O)cc1)C(=O)N[C@@H](C)C(=O)N[C@@H](Cc1c[nH]c2ccccc12)C(=O)N[C@@H](Cc1ccc(O)cc1)C(=O)N1CCC[C@H]1C(=O)N1CCC[C@H]1C(=O)N[C@H](C(=O)N[C@H](C(N)=O)C(C)C)C(C)C [Compound 82] (Ac-[Aib][Aib][Aib][Aib]WYAWYAWYPPVV-NH2) | > 16000 | 85 ± 7 | 800 ± 200 | 2 ± 1 (≈ 3.96 µg/mL) | – | – | – | –
C#CC[C@H](NC(=O)[C@H](CCC(=O)O)NC(=O)[C@H](CCC(=O)O)NC(=O)CCNC(=O)CCNC(=O)O[C@H]1CC[C@@]2(C)C(=CC[C@H]3[C@@H]4CC[C@H]([C@H](C)CCCC(C)C)[C@@]4(C)CC[C@@H]32)C1)C(=O)NCCOCCOCCOCCC(=O)NCCOCCOCCOCCC(=O)NC(C)(C)C(=O)NC(C)(C)C(=O)NC(C)(C)C(=O)NC(C)(C)C(=O)N[C@@H](Cc1c[nH]c2ccccc12)C(=O)N[C@@H](Cc1c[nH]c2ccccc12)C(=O)N[C@@H](C)C(=O)N[C@@H](Cc1ccc(O)cc1)C(=O)N[C@@H](Cc1c[nH]c2ccccc12)C(=O)N1CCC[C@H]1C(=O)N1CCC[C@H]1C(=O)N[C@H](C(=O)N[C@@H](C)C(N)=O)C(C)C [Compound 35, R″ = BEEZOOUUUUWWAYWPPVA-CONH2] ({Cholesteryloxycarbonyl-βAla-βAla}-EE[Pra][PEG3][PEG3][Aib][Aib][Aib][Aib]WWAYWPPVA-NH2) | – | – | – | – | 13000 | 110 | 649 ± 11 (≈ 1840 µg/mL) | Difference in solubility relative to Compound 31 ([2]; PBS): greater than hundredfold
C#CC[C@H](NC(=O)CCNC(=O)CCNC(=O)O[C@H]1CC[C@@]2(C)C(=CC[C@H]3[C@@H]4CC[C@H]([C@H](C)CCCC(C)C)[C@@]4(C)CC[C@@H]32)C1)C(=O)NCCOCCOCCOCCC(=O)NCCOCCOCCOCCC(=O)NC(C)(C)C(=O)NC(C)(C)C(=O)NC(C)(C)C(=O)NC(C)(C)C(=O)N[C@@H](Cc1c[nH]c2ccccc12)C(=O)N[C@@H](Cc1c[nH]c2ccccc12)C(=O)N[C@@H](C)C(=O)N[C@@H](Cc1ccc(O)cc1)C(=O)N[C@@H](Cc1c[nH]c2ccccc12)C(=O)N1CCC[C@H]1C(=O)N1CCC[C@H]1C(=O)N[C@H](C(=O)N[C@@H](C)C(N)=O)C(C)C [Compound 33, R″ = BZOOUUUUWWAYWPPVA-CONH2] ({Cholesteryloxycarbonyl-βAla-βAla}-[Pra][PEG3][PEG3][Aib][Aib][Aib][Aib]WWAYWPPVA-NH2) | – | – | – | – | > 100000 | 130 | – | solubility at 24 h ([2]; phosphate buffered saline, Table 1, PBS pH 7.4, 24 hours at 22° C., ±S.D., read-out: Solubility (aq.)): 2 µM (≈ 5.14 µg/mL)
CC(C)[C@H](NC(=O)[C@@H](NC(=O)[C@@H]1CCCN1C(=O)[C@@H]1CCCN1C(=O)[C@H](Cc1c[nH]c2ccccc12)NC(=O)[C@H](Cc1ccc(O)cc1)NC(=O)[C@H](C)NC(=O)[C@H](Cc1c[nH]c2ccccc12)NC(=O)[C@H](Cc1c[nH]c2ccccc12)NC(=O)C(C)(C)NC(=O)C(C)(C)NC(=O)C(C)(C)NC(=O)C(C)(C)N)C(C)C)C(N)=O [Compound 44] (H-[Aib][Aib][Aib][Aib]WWAYWPPVV-NH2) | > 16000 | 98 ± 2 | 5000 ± 1000 | 22 ± 1 (≈ 33.9 µg/mL) | – | – | 22 ± 1 (≈ 33.9 µg/mL) | Efficacy (% of max. 1) ([1]; Table 1, 14 hours): 97%; EC50 [1, 7]: 5200 nM
CC(=O)NC(C)(C)C(=O)NC(C)(C)C(=O)NC(C)(C)C(=O)NC(C)(C)C(=O)N[C@@H](Cc1c[nH]c2ccccc12)C(=O)N[C@@H](Cc1c[nH]c2ccccc12)C(=O)N[C@@H](C)C(=O)N[C@@H](Cc1c[nH]c2ccccc12)C(=O)N[C@@H](Cc1ccc(O)cc1)C(=O)N1CCC[C@H]1C(=O)N1CCC[C@H]1C(=O)N[C@H](C(=O)N[C@H](C(N)=O)C(C)C)C(C)C [Compound 78] (Ac-[Aib][Aib][Aib][Aib]WWAWYPPVV-NH2) | > 16000 | 70 ± 2 | 2300 ± 300 | 5 ± 1 (≈ 7.92 µg/mL) | – | – | – | –
CC(C)CCC[C@@H](C)[C@H]1CC[C@H]2[C@@H]3CC=C4C[C@@H](NCCCCC(=O)NCCC(=O)N[C@@H](CCC(=O)O)C(=O)N[C@@H](CCC(=O)O)C(=O)NCCOCCOCCOCCC(=O)NCCOCCOCCOCCC(=O)NC(C)(C)C(=O)NC(C)(C)C(=O)NC(C)(C)C(=O)NC(C)(C)C(=O)N[C@@H](Cc5ccc(O)cc5)C(=O)N[C@@H](Cc5ccc(O)cc5)C(=O)N[C@@H](C)C(=O)N[C@@H](Cc5ccc(O)cc5)C(=O)N[C@@H](Cc5ccc(O)cc5)C(=O)N5CCC[C@H]5C(=O)N5CCC[C@H]5C(=O)N[C@H](C(=O)N[C@H](C(N)=O)C(C)C)C(C)C)CC[C@]4(C)[C@H]3CC[C@]12C [Compound 28, R = BEEOOUUUUYYAYYPPVV-CONH2] ({Pentanoyl(5-NH-cholesteryl)-βAla}-EE[PEG3][PEG3][Aib][Aib][Aib][Aib]YYAYYPPVV-NH2) | – | – | – | – | 3000 | 60 | 63 ± 28 (≈ 169 µg/mL) | –
C#CC[C@H](NC(=O)[C@H](CCC(=O)O)NC(=O)[C@H](CCC(=O)O)NC(=O)CCNC(=O)CCCCN[C@H]1CC[C@@]2(C)C(=CC[C@H]3[C@@H]4CC[C@H]([C@H](C)CCCC(C)C)[C@@]4(C)CC[C@@H]32)C1)C(=O)NCCOCCOCCOCCC(=O)NCCOCCOCCOCCC(=O)NC(C)(C)C(=O)NC(C)(C)C(=O)NC(C)(C)C(=O)NC(C)(C)C(=O)N[C@@H](Cc1c[nH]c2ccccc12)C(=O)N[C@@H](Cc1c[nH]c2ccccc12)C(=O)N[C@@H](C)C(=O)N[C@@H](Cc1ccc(O)cc1)C(=O)N[C@@H](Cc1c[nH]c2ccccc12)C(=O)N1CCC[C@H]1C(=O)N1CCC[C@H]1C(=O)N[C@H](C(=O)N[C@@H](C)C(N)=O)C(C)C [Compound 31, R = BEEZOOUUUUWWAYWPPVA-CONH2] ({Pentanoyl(5-NH-cholesteryl)-βAla}-EE[Pra][PEG3][PEG3][Aib][Aib][Aib][Aib]WWAYWPPVA-NH2) | – | – | – | – | 4000 | 80 | < 5 | Solubility (aq., μM) ([2]; Table 1, PBS pH 7.4, 24 hours at 22° C., ±S.D.): 5 ± 1 µM (≈ 14.1 µg/mL)
CC(C)CCC[C@@H](C)[C@H]1CC[C@H]2[C@@H]3CC=C4C[C@@H](NCCCCC(=O)NCCC(=O)N[C@@H](CCC(=O)O)C(=O)N[C@@H](CCC(=O)O)C(=O)NCCOCCOCCOCCC(=O)NCCOCCOCCOCCC(=O)NC(C)(C)C(=O)NC(C)(C)C(=O)NC(C)(C)C(=O)NC(C)(C)C(=O)N[C@@H](Cc5ccc(O)cc5)C(=O)N[C@@H](Cc5ccc(O)cc5)C(=O)N[C@@H](Cc5ccc(O)cc5)C(=O)N[C@@H](Cc5ccc(O)cc5)C(=O)N[C@@H](Cc5ccc(O)cc5)C(=O)N5CCC[C@H]5C(=O)N5CCC[C@H]5C(=O)N[C@H](C(=O)N[C@H](C(N)=O)C(C)C)C(C)C)CC[C@]4(C)[C@H]3CC[C@]12C [Compound 29, R = BEEOOUUUUYYYYYPPVV-CONH2] ({Pentanoyl(5-NH-cholesteryl)-βAla}-EE[PEG3][PEG3][Aib][Aib][Aib][Aib]YYYYYPPVV-NH2) | – | – | – | – | 3000 | 80 | 90 ± 2 (≈ 249 µg/mL) | –
CC(=O)NC(C)(C)C(=O)NC(C)(C)C(=O)NC(C)(C)C(=O)NC(C)(C)C(=O)N[C@@H](Cc1c[nH]c2ccccc12)C(=O)N[C@@H](Cc1c[nH]c2ccccc12)C(=O)N[C@@H](C)C(=O)N[C@@H](Cc1ccc(O)cc1)C(=O)N[C@@H](Cc1c[nH]c2ccccc12)C(=O)N1CCC[C@H]1C(=O)N1CCC[C@H]1C(=O)N[C@H](C(=O)N[C@@H](C)C(N)=O)C(C)C [Compound 42] (Ac-[Aib][Aib][Aib][Aib]WWAYWPPVA-NH2) | – | – | – | – | – | – | 11 ± 1 (≈ 17.1 µg/mL) | IC50 (Jurkat lymphocytes; read-out: Toxicity (IC50), Table 1, Jurkat lymphocytes, 48 h at 37° C.): > 100000 nM; Efficacy (% of max. 1) ([1]; Table 1, 14 hours): 85%; EC50 [1, 7]: 5300 nM
CC(C)CCC[C@@H](C)[C@H]1CC[C@H]2[C@@H]3CC=C4C[C@@H](NCCCCC(=O)NCCC(=O)N[C@@H](CCC(=O)O)C(=O)N[C@@H](CCC(=O)O)C(=O)NCCCCCC(=O)NC(C)(C)C(=O)NC(C)(C)C(=O)NC(C)(C)C(=O)N[C@@H](Cc5c[nH]c6ccccc56)C(=O)N[C@@H](Cc5c[nH]c6ccccc56)C(=O)N[C@@H](C)C(=O)N[C@@H](Cc5ccc(O)cc5)C(=O)N[C@@H](Cc5c[nH]c6ccccc56)C(=O)N5CCC[C@H]5C(=O)N5CCC[C@H]5C(=O)N[C@H](C(=O)N[C@@H](C)C(N)=O)C(C)C)CC[C@]4(C)[C@H]3CC[C@]12C [Compound 9, R = BEEXUUUWWAYWPPVA-CONH2] ({Pentanoyl(5-NH-cholesteryl)-βAla}-EE[Ahx][Aib][Aib][Aib]WWAYWPPVA-NH2) | – | – | – | – | 11000 | 400 | 12 ± 1 (≈ 28.1 µg/mL) | –
